In ChEMBL document CHEMBL4043164, “Design, synthesis and biological evaluation of novel antitumor spirotetrahydrothiopyran-oxindole derivatives as potent p53-MDM2 inhibitors” (Bioorg Med Chem, 2017) one finds IC50 data, which are given here for 19 compounds.

Molecules are shown by their SMILES.

The subject of one assay is HCT-116. As to the kind of experiment: Cytotoxicity against human HCT116 cells assessed as reduction in cell viability incubated for 24 hrs by CCK8 assay. Particulars: HCT-116, 24 h.
In the next assay the test system is MCF7. As to the kind of experiment: Cytotoxicity against human MCF7 cells assessed as reduction in cell viability incubated for 24 hrs by CCK8 assay. As to conditions: MCF7, 24 h. (In general: Tetrazolium dyes change colour on reduction, which living cells bring about.)
Another assay relates to A549. As to the kind of experiment: Cytotoxicity against human A549 cells assessed as reduction in cell viability incubated for 24 hrs by CCK8 assay. Particulars: A549, 24 h.

For the compound `COc1ccc(C2=N[C@H](c3ccc(Cl)cc3)[C@H](c3ccc(Cl)cc3)N2C(=O)N2CCNC(=O)C2)c(OC(C)C)c1`, the half-inhibitory concentration (IC50) (as a rule, the concentration needed to halve the response being measured) in the assay on HCT-116 was determined as 28.4 µM; in the assay on MCF7, 14.9 µM; in the assay on A549 it was 10 µM.
As for `COc1ccc(N2C[C@H]3[C@@H](CS[C@]4(C(=O)Nc5cccc(Br)c54)[C@@H]3c3ccc(Br)cc3)CC2=O)cc1`, the IC50 worked out at 8.3 µM in the assay with HCT-116, 3 µM in the assay with MCF7 and 4.3 µM with A549.
`O=C1C[C@@H]2CS[C@]3(C(=O)Nc4cccc(Br)c43)[C@H](c3ccc(Br)cc3)[C@H]2CN1c1ccccc1`: the IC50 with HCT-116 worked out at 8.6 µM; in the assay on MCF7, 4 µM; in the assay on A549, 4.2 µM.
On the same counts, the results for `COC(=O)C[C@@H]1CS[C@]2(C(=O)Nc3cccc(Br)c32)[C@H](c2ccc(Br)cc2)[C@H]1CNc1ccccc1F` are 10.5 µM, 3.6 µM and 4.2 µM.
Take `O=C1Nc2cccc(Br)c2[C@@]12SC[C@@H](CCO)[C@H](CO)[C@H]2c1ccc(Br)cc1`: the half-maximal inhibitory concentration (IC50) in the assay on HCT-116 was 19.1 µM; in the assay on MCF7 it was 13.5 µM; in the assay with A549, 16.5 µM.
`COC(=O)C[C@@H]1CS[C@]2(C(=O)Nc3cccc(Br)c32)[C@H](c2ccc(Br)cc2)[C@H]1CNc1cccc(F)c1`: the figures for the IC50 with HCT-116, in the assay with MCF7 and with A549 were 8.6 µM, 2.8 µM and 3.5 µM, respectively.
Consider `CCOc1ccc(N2C[C@H]3[C@@H](CS[C@]4(C(=O)Nc5cccc(Br)c54)[C@@H]3c3ccc(Br)cc3)CC2=O)cc1`, for which the IC50 in the assay with HCT-116 worked out at 10.4 µM; in the assay with MCF7, 3.2 µM; in the assay with A549 it was 2.6 µM.
On to `O=C1C[C@@H]2CS[C@]3(C(=O)Nc4cccc(Br)c43)[C@H](c3ccc(Br)cc3)[C@H]2CN1c1cccc(F)c1`, for which the figures for the IC50 in the assay on HCT-116, in the assay with MCF7 and in the assay with A549 were 9.5 µM, 3.8 µM and 3.5 µM, respectively.
On to `CN1CCN(c2ccc(N3C[C@H]4[C@@H](CS[C@]5(C(=O)Nc6cccc(Br)c65)[C@@H]4c4ccc(Br)cc4)CC3=O)cc2)CC1`, for which the IC50 in the assay on HCT-116 amounted to 8.8 µM; in the assay on MCF7, 5.9 µM; in the assay on A549, 6.3 µM.
Take `O=C1C[C@@H]2CS[C@]3(C(=O)Nc4cccc(Br)c43)[C@H](c3ccc(Br)cc3)[C@H]2CN1c1ccc(N2CCOCC2)cc1`: the half-maximal inhibitory concentration (IC50) with HCT-116 was 4.3 µM; in the assay on MCF7, 2.4 µM; in the assay with A549, 2.6 µM.
In the case of `Cc1ccc(N2C[C@H]3[C@@H](CS[C@]4(C(=O)Nc5cccc(Br)c54)[C@@H]3c3ccc(Br)cc3)CC2=O)cc1`, the IC50 in the assay on HCT-116 was found to be 5.1 µM; in the assay with MCF7, 3 µM; in the assay on A549, 4.6 µM.
Regarding `O=C1C[C@@H]2CS[C@]3(C(=O)Nc4cccc(Br)c43)[C@H](c3ccc(Br)cc3)[C@H]2CN1c1ccc(Cl)cc1`, the concentration for half-maximal inhibition (IC50) in the assay with HCT-116 was found to be 8 µM; in the assay with MCF7, 4.2 µM; with A549 it was 4.8 µM.
Consider `O=C1C[C@@H]2CS[C@]3(C(=O)Nc4cccc(Br)c43)[C@H](c3ccc(Br)cc3)[C@H]2CN1c1ccc(F)cc1F`, for which the concentration for half-maximal inhibition (IC50) with HCT-116 was 9.8 µM; with MCF7, 4.4 µM; in the assay on A549, 2.5 µM.
On to `COC(=O)C[C@@H]1CS[C@]2(C(=O)Nc3cccc(Br)c32)[C@H](c2ccc(Br)cc2)[C@H]1C=O`, for which the IC50 in the assay with HCT-116 was 17.3 µM; in the assay with MCF7, 8.5 µM; in the assay with A549, 11.2 µM.
Regarding `O=C1C[C@@H]2CS[C@]3(C(=O)Nc4cccc(Br)c43)[C@H](c3ccc(Br)cc3)[C@H]2CN1c1ccc(F)cc1`, the IC50 turned out to be 10.5 µM with HCT-116, 4 µM in the assay with MCF7 and 4.4 µM with A549.
The like results for `O=C1C[C@@H]2CS[C@]3(C(=O)Nc4cccc(Br)c43)[C@H](c3ccc(Br)cc3)[C@H]2CN1c1ccccc1F` were, in that order, 9.3 µM, 4.6 µM and 2.3 µM.
The like results for `O=C1C[C@@H]2CS[C@]3(C(=O)Nc4cccc(Br)c43)[C@H](c3ccc(Br)cc3)[C@H]2CN1c1ccc(-c2ccccc2)cc1` were, in that order, 5.6 µM, 6.9 µM and 4.1 µM.
For `CCN(CC)c1ccc(N2C[C@H]3[C@@H](CS[C@]4(C(=O)Nc5cccc(Br)c54)[C@@H]3c3ccc(Br)cc3)CC2=O)cc1`, the values for the IC50 with HCT-116, with MCF7 and with A549 were 2.4 µM, 1.8 µM and 2.9 µM, respectively.
On to `CCOc1cccc(N2C[C@H]3[C@@H](CS[C@]4(C(=O)Nc5cccc(Br)c54)[C@@H]3c3ccc(Br)cc3)CC2=O)c1`, for which the IC50 with HCT-116 is 8.5 µM; with MCF7, 3.6 µM; with A549, 4.5 µM.
